From ChEMBL document CHEMBL1201861, “Genomics of Drug Sensitity in Cancer screening data, Wellcome Trust Sanger Institute”

Experiments:
Test in all cases: cells
Format in all cases: functional, cell-based, Homo sapiens
GP5d = conditions: Homo sapiens, GP5d;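 further: growth inhibition of human GP5d cells, read out with a cell viability assay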
Description: SANGER: Inhibition of human GP5d cell growth in a cell viability assay.

MHH-CALL-2 = conditions: Homo sapiens, MHH-CALL-2;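 further: growth inhibition of the cell line, read out in a cell viability assay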
Description: SANGER: Inhibition of human MHH-CALL-2 cell growth in a cell viability assay.

NCI-H2009 = conditions: Homo sapiens, NCI-H2009;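 further: cell viability assay measuring inhibition of NCI-H2009 cell growth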
Description: SANGER: Inhibition of human NCI-H2009 cell growth in a cell viability assay.

SR = conditions: Homo sapiens, SR
Description: SANGER: Inhibition of human SR cell growth in a cell viability assay.

COLO-741 = conditions: Homo sapiens, COLO-741
Description: SANGER: Inhibition of human COLO-741 cell growth in a cell viability assay.

SK-MM-2 = conditions: Homo sapiens, SK-MM-2;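 further: growth inhibition of human SK-MM-2 cells, read out with a cell viability assay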
Description: SANGER: Inhibition of human SK-MM-2 cell growth in a cell viability assay.

PANC-08-13 = conditions: Homo sapiens, PANC-08-13;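 further: cell growth inhibition, measured with a cell viability assay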
Description: SANGER: Inhibition of human PANC-08-13 cell growth in a cell viability assay.

SK-MEL-24 = conditions: Homo sapiens, SK-MEL-24;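 further: growth inhibition read out by a cell viability assay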
Description: SANGER: Inhibition of human SK-MEL-24 cell growth in a cell viability assay.

TE-441-T = conditions: Homo sapiens, TE-441-T
Description: SANGER: Inhibition of human TE-441-T cell growth in a cell viability assay.

BFTC-905 = conditions: Homo sapiens, BFTC-905
Description: SANGER: Inhibition of human BFTC-905 cell growth in a cell viability assay.

MKN-28 = conditions: Homo sapiens, MKN-28;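 further: cell viability assay read-out, IC50 reflects suppression of growth of human MKN-28 cells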
Description: SANGER: Inhibition of human MKN28 cell growth in a cell viability assay.

U-118-MG = conditions: Homo sapiens, U-118-MG
Description: SANGER: Inhibition of human U-118-MG cell growth in a cell viability assay.

RO82-W-1 = conditions: Homo sapiens, RO82-W-1;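 further: growth inhibition of human RO82-W-1 cells, measured with a cell viability assay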
Description: SANGER: Inhibition of human RO82-W-1 cell growth in a cell viability assay.

M059J = conditions: Homo sapiens, M059J;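 further: growth inhibition of M059J cells, read out with a cell viability assay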
Description: SANGER: Inhibition of human M059J cell growth in a cell viability assay.

TYK-nu = conditions: Homo sapiens, TYK-nu;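 further: growth inhibition of human TYK-nu cells, read out by a cell viability assay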
Description: SANGER: Inhibition of human TYK-nu cell growth in a cell viability assay.

NCI-H1755 = conditions: Homo sapiens, NCI-H1755;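 further: cell viability readout used to measure growth inhibition of NCI-H1755 cells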
Description: SANGER: Inhibition of human NCI-H1755 cell growth in a cell viability assay.

HT-3 = conditions: Homo sapiens, HT-3;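 further: growth inhibition measured with a cell viability readout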
Description: SANGER: Inhibition of human HT-3 cell growth in a cell viability assay.

UMC-11 = conditions: Homo sapiens, UMC-11;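 further: growth inhibition of UMC-11 cells, read out with a cell viability assay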
Description: SANGER: Inhibition of human UMC-11 cell growth in a cell viability assay.

NCI-H1694 = conditions: Homo sapiens, NCI-H1694;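 further: cell viability assay measuring inhibition of growth in human NCI-H1694 cells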
Description: SANGER: Inhibition of human NCI-H1694 cell growth in a cell viability assay.

NCI-H441 = conditions: Homo sapiens, NCI-H441;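 further: growth inhibition of NCI-H441 cells, read out with a cell viability assay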
Description: SANGER: Inhibition of human NCI-H441 cell growth in a cell viability assay.

SAOS-2 = conditions: Homo sapiens, SAOS-2;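 further: growth inhibition of human Saos-2 cells determined by a cell viability assay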
Description: SANGER: Inhibition of human Saos-2 cell growth in a cell viability assay.

NCI-H524 = conditions: Homo sapiens, NCI-H524;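 further: growth inhibition of human NCI-H524 cells, read out through a cell viability assay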
Description: SANGER: Inhibition of human NCI-H524 cell growth in a cell viability assay.

SNU-387 = conditions: Homo sapiens, SNU-387
Description: SANGER: Inhibition of human SNU-387 cell growth in a cell viability assay.

NCI-H2052 = conditions: Homo sapiens, NCI-H2052;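 further: growth inhibition of NCI-H2052 cells, read out with a cell viability assay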
Description: SANGER: Inhibition of human NCI-H2052 cell growth in a cell viability assay.

Daudi = conditions: Homo sapiens, Daudi;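 further: growth inhibition of Daudi cells, read out by a viability assay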
Description: SANGER: Inhibition of human Daudi cell growth in a cell viability assay.

ESS-1 = conditions: Homo sapiens, ESS-1;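 further: growth inhibition of human ESS-1 cells, read out by a cell viability assay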
Description: SANGER: Inhibition of human ESS-1 cell growth in a cell viability assay.

C32 = conditions: Homo sapiens, C32;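 further: cell viability assay, with IC50 reflecting inhibition of C32 cell growth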
Description: SANGER: Inhibition of human C32 cell growth in a cell viability assay.

SW-620 = conditions: Homo sapiens, SW-620;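 further: growth inhibition of human SW-620 cells, measured by a cell viability assay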
Description: SANGER: Inhibition of human SW620 cell growth in a cell viability assay.

NCI-H1436 = conditions: Homo sapiens, NCI-H1436;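 further: growth suppression of human NCI-H1436 cells, determined with a cell viability readout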
Description: SANGER: Inhibition of human NCI-H1436 cell growth in a cell viability assay.

RVH-421 = conditions: Homo sapiens, RVH-421
Description: SANGER: Inhibition of human RVH-421 cell growth in a cell viability assay.

RPMI-2650 = conditions: Homo sapiens, RPMI-2650
Description: SANGER: Inhibition of human RPMI-2650 cell growth in a cell viability assay.

CAL-33 = conditions: Homo sapiens, CAL-33;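 further: growth inhibition of CAL-33 cells, read out with a cell viability assay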
Description: SANGER: Inhibition of human CAL-33 cell growth in a cell viability assay.

HuP-T3 = conditions: Homo sapiens, HuP-T3;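 further: HuP-T3 cell growth inhibition, read out with a cell viability assay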
Description: SANGER: Inhibition of human HuP-T3 cell growth in a cell viability assay.

ABC-1 = conditions: Homo sapiens, ABC-1;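 further: growth inhibition of human ABC-1 cells, read out by a cell viability assay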
Description: SANGER: Inhibition of human ABC-1 cell growth in a cell viability assay.

EFO-27 = conditions: Homo sapiens, EFO-27;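 further: growth inhibition of EFO-27 cells, read out with a cell viability assay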
Description: SANGER: Inhibition of human EFO-27 cell growth in a cell viability assay.

HOP-92 = conditions: Homo sapiens, HOP-92;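 further: cell viability readout, with IC50 reflecting inhibition of HOP-92 cell growth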
Description: SANGER: Inhibition of human HOP-92 cell growth in a cell viability assay.

HuP-T4 = conditions: Homo sapiens, HuP-T4;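 further: cell viability assay measuring how much HuP-T4 cell growth is inhibited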
Description: SANGER: Inhibition of human HuP-T4 cell growth in a cell viability assay.

LP-1 = conditions: Homo sapiens, LP-1;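 further: growth inhibition of human LP-1 cells, with the read-out taken from a cell viability assay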
Description: SANGER: Inhibition of human LP-1 cell growth in a cell viability assay.

ACHN = conditions: Homo sapiens, ACHN;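 further: cell viability read-out used to gauge how strongly growth of human ACHN cells is suppressed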
Description: SANGER: Inhibition of human ACHN cell growth in a cell viability assay.

CAL-120 = conditions: Homo sapiens, CAL-120;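 further: cell growth inhibition, read out as cell viability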
Description: SANGER: Inhibition of human CAL-120 cell growth in a cell viability assay.

NCI-H292 = conditions: Homo sapiens, NCI-H292;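 further: growth inhibition of NCI-H292 cells, read out with a cell viability assay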
Description: SANGER: Inhibition of human NCI-H292 cell growth in a cell viability assay.

NCI-H2170 = conditions: Homo sapiens, NCI-H2170;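 further: cell viability assay measuring growth inhibition of human NCI-H2170 cancer cells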
Description: SANGER: Inhibition of human NCI-H2170 cell growth in a cell viability assay.

YKG-1 = conditions: Homo sapiens, YKG-1;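 further: cell growth inhibition, read out with a viability assay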
Description: SANGER: Inhibition of human YKG-1 cell growth in a cell viability assay.

COLO-678 = conditions: Homo sapiens, COLO-678
Description: SANGER: Inhibition of human COLO-678 cell growth in a cell viability assay.

NCI-H2452 = conditions: Homo sapiens, NCI-H2452;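 further: growth inhibition of NCI-H2452 cells, read out with a cell viability assay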
Description: SANGER: Inhibition of human NCI-H2452 cell growth in a cell viability assay.

Calu-3 = conditions: Homo sapiens, Calu-3;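 further: growth inhibition of human Calu-3 cells, determined with a cell viability assay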
Description: SANGER: Inhibition of human Calu-3 cell growth in a cell viability assay.

Measured: IC50

C=C(c1ccc(C(=O)O)cc1)c1cc2c(cc1C)C(C)(C)CCC2(C)C [BEXAROTENE]
7110 nM: TYK-nu
> 8000 nM: GP5d | MHH-CALL-2 | NCI-H2009 | SR | COLO-741 | SK-MM-2 | PANC-08-13 | SK-MEL-24 | TE-441-T | BFTC-905 | MKN-28 | U-118-MG | RO82-W-1 | M059J | NCI-H1755 | HT-3 | UMC-11 | NCI-H1694 | NCI-H441 | SAOS-2 | NCI-H524 | SNU-387 | NCI-H2052 | Daudi | ESS-1 | C32 | SW-620 | NCI-H1436 | RVH-421 | RPMI-2650 | CAL-33 | HuP-T3 | ABC-1 | EFO-27 | HOP-92 | HuP-T4 | LP-1 | ACHN | CAL-120 | NCI-H292 | NCI-H2170 | YKG-1 | COLO-678 | NCI-H2452 | Calu-3

CCC/C=C/C=C/C(=O)O[C@H]1/C(=C/C(=O)OC)C[C@H]2C[C@H]([C@@H](C)O)OC(=O)C[C@H](O)C[C@@H]3C[C@H](OC(C)=O)C(C)(C)[C@](O)(C[C@@H]4C/C(=C/C(=O)OC)C[C@H](/C=C/C(C)(C)[C@]1(O)O2)O4)O3 [BRYOSTATIN 1]
4.13 nM: YKG-1
2 nM: M059J
> 8 nM: GP5d | MHH-CALL-2 | NCI-H2009 | SR | COLO-741 | SK-MM-2 | PANC-08-13 | SK-MEL-24 | TE-441-T | BFTC-905 | MKN-28 | U-118-MG | RO82-W-1 | TYK-nu | NCI-H1755 | HT-3 | UMC-11 | NCI-H1694 | NCI-H441 | SAOS-2 | NCI-H524 | SNU-387 | NCI-H2052 | Daudi | ESS-1 | C32 | SW-620 | NCI-H1436 | RVH-421 | RPMI-2650 | CAL-33 | HuP-T3 | ABC-1 | EFO-27 | HOP-92 | HuP-T4 | LP-1 | ACHN | CAL-120 | NCI-H292 | NCI-H2170 | COLO-678 | NCI-H2452 | Calu-3

COc1cccc2c1C(=O)c1c(O)c3c(c(O)c1C2=O)C[C@@](O)(C(=O)CO)C[C@@H]3O[C@H]1C[C@H](N)[C@H](O)[C@H](C)O1 [DOXORUBICIN]
856 nM: U-118-MG
69 nM: Daudi
200 nM: NCI-H1694
291 nM: HOP-92
31.4 nM: M059J
778 nM: CAL-120
31.9 nM: MKN-28
195 nM: COLO-741
24.4 nM: SR
16.2 nM: BFTC-905
11.1 nM: ESS-1
89.8 nM: TE-441-T
166 nM: HuP-T3
331 nM: UMC-11
26.6 nM: SW-620
110 nM: NCI-H2170
51.8 nM: NCI-H2009
52.2 nM: HuP-T4
133 nM: HT-3
49.3 nM: ACHN
874 nM: NCI-H1755
236 nM: SNU-387
18.8 nM: YKG-1
28.4 nM: NCI-H441
97.4 nM: EFO-27
169 nM: RVH-421
330 nM: SAOS-2
914 nM: SK-MEL-24
160 nM: NCI-H2052
427 nM: COLO-678
13.7 nM: RPMI-2650
56 nM: Calu-3
942 nM: SK-MM-2
67.9 nM: CAL-33
359 nM: MHH-CALL-2
663 nM: TYK-nu
> 1020 nM: PANC-08-13 | RO82-W-1 | NCI-H524 | C32 | NCI-H1436 | LP-1 | NCI-H2452
49.1 nM: GP5d
43.8 nM: NCI-H292
83.4 nM: ABC-1
